US20160002248A1, “GLS1 INHIBITORS FOR TREATING DISEASE” (Board of Regents, The University of Texas System, priority 2014, published 2016)

Legend:
[1] = tested on: A549 cells; assay: Proliferation Assay (A549 cell viability, Cell Titer Fluor); type: cell-based; details: Homo sapiens, 72 hours
How it was run: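 A549 cells seeded at 1000 cells/well, left 24 h, then exposed to compound for 72 h at 37 °C, 5% CO2, final DMSO 0.5% (v/v). Viability read by Cell Titer Fluor fluorescence; EC50 from four-parameter logistic fit.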

[2] = target: T1, purified recombinant human GAC (GLS1) (Homo sapiens, UniProt O94925); assay: GLS1 Enzymatic Activity Assay (dual-coupled enzymatic assay); type: biochemical
T1 sequence (O94925 55-598 isoform O94925-3 limits assumed): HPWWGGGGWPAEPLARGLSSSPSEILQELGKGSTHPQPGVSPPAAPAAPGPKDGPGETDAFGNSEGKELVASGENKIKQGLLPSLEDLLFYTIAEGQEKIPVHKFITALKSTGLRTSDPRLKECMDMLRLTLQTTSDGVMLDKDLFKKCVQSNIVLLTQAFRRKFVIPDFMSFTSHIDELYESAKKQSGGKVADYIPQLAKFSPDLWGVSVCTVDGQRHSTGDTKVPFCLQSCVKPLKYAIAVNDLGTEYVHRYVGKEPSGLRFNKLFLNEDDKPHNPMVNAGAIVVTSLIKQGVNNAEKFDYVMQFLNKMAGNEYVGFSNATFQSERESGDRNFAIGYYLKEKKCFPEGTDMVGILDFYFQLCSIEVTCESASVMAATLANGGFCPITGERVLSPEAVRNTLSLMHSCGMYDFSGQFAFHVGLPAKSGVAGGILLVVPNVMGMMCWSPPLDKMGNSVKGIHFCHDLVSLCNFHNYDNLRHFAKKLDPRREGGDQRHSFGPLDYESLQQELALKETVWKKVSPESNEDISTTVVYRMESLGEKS
How it was run: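 GAC activity measured by coupling glutamate to glutamate oxidase and HRP, generating resorufin from Amplex UltraRed. Enzyme (2 nM) preincubated with 50 mM potassium phosphate 10 min at room temperature, then inhibitor 10 min; 1 mM glutamine substrate, 1% DMSO. Fluorescence 530/590 nm, kinetic or 20-min endpoint; IC50 from four-parameter logistic fit.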

Row | Compound | EC50 [1] | IC50 [2]
1 | O=C(Nc1nnc(CCCCc2cc3cc(Cc4ccccc4)[nH]c3nn2)s1)[C@H](O)c1ccccc1 [Example 60, (2R)-N-[5-(4-(6-benzyl-7H-pyrrolo[2,3-c]pyridazin-3-yl}butyl)-1,3,4-thiadiazol-2-yl]-2-hydroxy-2-phenylacetamide] | 500 to 5000 nM | < 100 nM
2 | O=C(Nc1nnc(CCCCc2cc3cc[nH]c3nn2)s1)[C@@H](O)c1ccccc1 [Example 66, (2S)-2-hydroxy-2-phenyl-N-[5-(4-{7H-pyrrolo[2,3-c]pyridazin-3-yl}butyl)-1,3,4-thiadiazol-2-yl]acetamide] | 500 to 5000 nM | 100 to 500 nM
3 | O=C(NCCO)c1nnc(CCCCc2cc3cc(Cc4ccccc4)[nH]c3nn2)s1 [Example 68, 5-(4-{6-benzyl-7H-pyrrolo[2,3-c]pyridazin-3-yl}butyl)-N-(2-hydroxyethyl)-1,3,4-thiadiazole-2-carboxamide] | 500 to 5000 nM | 500 to 5000 nM
4 | O=C(NC1COC1)c1nnc(CCCCc2cc3cc(Cc4ccccc4)[nH]c3nn2)s1 [Example 72, 5-(4-{6-benzyl-7H-pyrrolo[2,3-c]pyridazin-3-yl}butyl)-N-(oxetan-3-yl)-1,3,4-thiadiazole-2-carboxamide] | > 5000 nM | 100 to 500 nM
5 | O=C(NCc1ccccc1)c1nnc(CCCCc2cc3cc(Cc4ccccc4)[nH]c3nn2)s1 [Example 73, N-benzyl-5-(4-{6-benzyl-7H-pyrrolo[2,3-c]pyridazin-3-yl}butyl)-1,3,4-thiadiazole-2-carboxamide] | 500 to 5000 nM | < 100 nM
6 | O=C(NCc1ccccn1)c1nnc(CCCCc2cc3cc(Cc4ccccc4)[nH]c3nn2)s1 [Example 74, 5-(4-{6-benzyl-7H-pyrrolo[2,3-c]pyridazin-3-yl}butyl)-N-(pyridin-2-ylmethyl)-1,3,4-thiadiazole-2-carboxamide] | 100 to 500 nM | < 100 nM

Results, then the compound that gave them:

Row | EC50 [1] | IC50 [2] | Compound
7 | 500 to 5000 nM | < 100 nM | O=C(Nc1nnc(CCCCc2cc3cc(Cc4ccccc4)[nH]c3nn2)s1)OC1CCOCC1 [Example 61, oxan-4-yl N-[5-(4-{6-benzyl-7H-pyrrolo[2,3-c]pyridazin-3-yl}butyl)-1,3,4-thiadiazol-2-yl]carbamate]
8 | 500 to 5000 nM | < 100 nM | O=C(Cc1ccccc1)Nc1ccn(CCCCc2cc3cc(Cc4ccccc4)[nH]c3nn2)c(=O)n1 [Example 62, N-[1-(4-{6-benzyl-7H-pyrrolo[2,3-c]pyridazin-3-yl}butyl)-2-oxo-1,2-dihydropyrimidin-4-yl]-2-phenylacetamide]
9 | 500 to 5000 nM | 100 to 500 nM | O=C(Cc1cccc(OC(F)(F)F)c1)Nc1nnc(CCCCc2cc3cc[nH]c3nn2)s1 [Example 63, N-[5-(4-{7H-pyrrolo[2,3-c]pyridazin-3-yl}butyl)-1,3,4-thiadiazol-2-yl]-2-[3-(trifluoromethoxy)phenyl]acetamide]
10 | 100 to 500 nM | 500 to 5000 nM | CC(C)CNC(=O)c1cn(CCCCc2cc3cc(Cc4ccccc4)[nH]c3nn2)nn1 [Example 65, 1-(4-{6-benzyl-7H-pyrrolo[2,3-c]pyridazin-3-yl}butyl)-N-(2-methylpropyl)-1H-1,2,3-triazole-4-carboxamide]
11 | 100 to 500 nM | 100 to 500 nM | COCCNC(=O)c1nnc(CCCCc2cc3cc(Cc4ccccc4)[nH]c3nn2)s1 [Example 67, 5-(4-{6-benzyl-7H-pyrrolo[2,3-c]pyridazin-3-yl}butyl)-N-(2-methoxyethyl)-1,3,4-thiadiazole-2-carboxamide]
12 | 500 to 5000 nM | 100 to 500 nM | O=C(NCC1COC1)c1nnc(CCCCc2cc3cc(Cc4ccccc4)[nH]c3nn2)s1 [Example 69, 5-(4-{6-benzyl-7H-pyrrolo[2,3-c]pyridazin-3-yl}butyl)-N-(oxetan-3-ylmethyl)-1,3,4-thiadiazole-2-carboxamide]
13 | 100 to 500 nM | 100 to 500 nM | CNC(=O)c1nnc(CCCCc2cc3cc(Cc4ccccc4)[nH]c3nn2)s1 [Example 70, 5-(4-{6-benzyl-7H-pyrrolo[2,3-c]pyridazin-3-yl}butyl)-N-methyl-1,3,4-thiadiazole-2-carboxamide]
